Source: patent US10745355B2, “Anti-cancer compounds” (THE UNIVERSITY OF SYDNEY, priority 2015, dated 2020)

Key:
U87vIII [1] = assay: Annexin-FITC/7-AAD apoptosis assay, U87vIII cells; assay type: cell-based; conditions: 48 hours treatment
Method: FIGS. 4A-4D. […] U87 (4A-4B) and U87vIII (4C-4D) cells were treated with SC-38 for 48 hours and stained with Annexin-FITC/7-AAD. Apoptotic cells were visualized using the MUSE cell analyzer (Millipore).
FIGS. 6A-6D. […] U87 (A B) (6A-6B) and U87vIII (6C-6D) cells were treated with compound 1-08 for 48 hours and stained with Annexin-FITC/7-AAD. Apoptotic cells were visualized using the MUSE cell analyzer (Millipore). Results are means±SEM from 3 independent experiments. One-way ANOVA followed by Dunnet post-test was used to calculate statistical significance (***P<0.001).
(§1) U87 (FIGS. 4, A-B) and U87vIII (FIG. 4, C-D) cells were treated with SC-38 for 48 hours and stained with Annexin-FITC/7-AAD. Apoptotic cells were visualized using the MUSE cell analyzer (Millipore). Results are means±SEM from 3 independent experiments. One-way ANOVA followed by Dunnet post-test was used to calculate statistical significance (**P<0.01, ***P<0.001)
as §1, with “6,” for “4,”, “compound 1-08” for “SC-38”, “three” for “3”, “(***P<0.001).” for “(**P<0.01, ***P<0.001)”

U87vIII [2] = assay: Alamar blue cell viability assay, U87vIII cells; assay type: cell-based; conditions: 72 hours of treatment; mean±SEM, three independent experiments
Method: U87 and U251 cell lines were obtained from the European Collection of Cell Cultures (ECACC) through CellBank Australia. U87-EGFRvIII cell line was obtained from their lab of origin (Nishikawa et al., 1994, Proc Natl Acad Sci USA 91: 7727-7731) and tested for EGFR amplification and mutation by immunoblotting and flow cytometry. Cells were cultured in DMEM medium (Invitrogen by Life Technologies, Carlsbad, Calif., USA) supplemented with 10% FBS (Sigma-Aldrich) at 37° C. and 5% CO2. Primary gliomaspheres (RN1, classical; WK1, mesenchymal) were derived from glioblastoma specimens (Day et al., 2013, Cancers 5: 357-371; Day et al., 2013, Cancer Cell 23: 238-248), maintained in StemPro NSC serum-free media supplemented with EGF and FGF (all Life Technologies), and grown on matrigel-coated flasks (Pollard et al., 2009, Cell Stem Cell 4: 568-580).
Cell viability was determined using Alamar blue assay after 72 hours of treatment (Table 2). EC50 values were calculated using non-linear regression on Graph Pad Prism version 5. c Log P values calculated using ChemBioDraw Software. Results are mean±SEM from three independent experiments performed in triplicates.

Porcine brain tubulin = biological target: T1, Porcine brain tubulin (Sus scrofa, UniProt P02550+P02554); assay: Fluorescence-based tubulin polymerisation assay; assay type: biochemical; conditions: 37° C., FIG. 10A
T1 construct: purchased Cytoskeleton, Colo., USA (Tubulin Polymerisation Assay kit); host or cells: porcine brain (tissue-purified)
Method: FIGS. 10A-10D. […] (10A) Compound 1-08 inhibits tubulin polymerisation in vitro. Data are expressed as mean from at least 3 independent experiments; each data point was performed in triplicates. (10B) U87 cells treated with compound 1-08 (24 h) were stained with Alexa488-labelled anti-β-tubulin antibody (green) or DAPI (blue). Treatment profoundly disturbed the microtubule network and caused formation of multinucleated cell (white arrows). White scale bar represents 50 μm. Multinucleated cells were manually counted and at least 200 cells were counted for each sample. Data in the bar graph (10C) are expressed as mean±SEM (n=3; * P<0.05, *** P<0.001; 1-way ANOVA followed by Newman-Keuls posttest). (10D) U87 cells were treated with compound 1-08 (48 h), tubulin and DNA were stained as in (10B). Treatment with 1-08 caused defective mitotic spindle formation. Representative images from 3 independent experiments are shown. White scale bar represents 2 μm.
The effect of compound 1-08 on tubulin polymerisation and mitotic spindle formation was also investigated. The fluorescence-based tubulin polymerisation assay was conducted in the final volume of 55 μL using the Tubulin Polymerisation Assay kit (Cytoskeleton, Colo., USA) as per the manufacturer's instructions. Porcine brain tubulin was incubated with test compounds (paclitaxel, vinblastine and compound 1-08) at 37° C. and fluorescence was measured using FLUOstar Omega microplate reader (BMG Labtech, Ortenberg, Germany; excitation at 355 nm and emission at 460 nm). […] To test whether compound 1-08 alters microtubules in vivo, U87 glioblastoma cells were treated with compound 1-08 and the effect on the microtubules was determined by immunofluorescence staining of β-tubulin. […] The consequence of microtubule depolymerisation induced by compound 13 was disrupted spindle assembly (FIG. 10D). In untreated U87 cells undergoing mitosis, microtubules are assembled into bipolar spindles (control images).

T1 sequence (P02550 whole entry): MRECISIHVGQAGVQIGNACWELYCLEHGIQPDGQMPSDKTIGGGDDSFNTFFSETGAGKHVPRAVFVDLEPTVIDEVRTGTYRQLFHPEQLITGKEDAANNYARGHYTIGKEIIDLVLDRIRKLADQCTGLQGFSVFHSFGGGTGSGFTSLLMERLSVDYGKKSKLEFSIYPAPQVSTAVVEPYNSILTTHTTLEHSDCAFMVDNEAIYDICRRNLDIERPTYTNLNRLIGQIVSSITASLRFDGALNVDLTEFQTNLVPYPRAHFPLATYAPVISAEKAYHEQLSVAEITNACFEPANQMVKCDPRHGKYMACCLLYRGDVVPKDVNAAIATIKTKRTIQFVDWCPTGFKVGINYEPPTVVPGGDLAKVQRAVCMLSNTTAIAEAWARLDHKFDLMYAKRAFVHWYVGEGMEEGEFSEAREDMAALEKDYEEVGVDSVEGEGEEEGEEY
T1 sequence (P02554 whole entry): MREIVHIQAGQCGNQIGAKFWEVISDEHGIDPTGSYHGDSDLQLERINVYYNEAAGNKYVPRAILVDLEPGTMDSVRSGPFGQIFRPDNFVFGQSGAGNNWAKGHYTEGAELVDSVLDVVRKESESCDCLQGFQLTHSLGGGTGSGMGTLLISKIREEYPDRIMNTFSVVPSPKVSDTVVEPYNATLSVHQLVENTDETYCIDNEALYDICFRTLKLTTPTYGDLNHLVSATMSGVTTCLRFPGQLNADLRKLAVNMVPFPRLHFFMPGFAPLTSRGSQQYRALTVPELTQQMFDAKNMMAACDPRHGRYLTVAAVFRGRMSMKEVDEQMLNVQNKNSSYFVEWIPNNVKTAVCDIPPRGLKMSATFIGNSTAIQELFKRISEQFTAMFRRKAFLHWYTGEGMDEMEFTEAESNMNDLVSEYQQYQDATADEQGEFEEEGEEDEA

O=C(CCCc1ccc(-c2cnc3ccccc3c2)cc1)Nc1ccc(O)cc1 [Compound 1-08, N-(4-hydroxyphenyl)-4-(4-(quinolin-3-yl)phenyl)butanamide]
apoptosis, U87vIII (U87vIII [1]): induced apoptosis
EC50 (U87vIII [2]): 1300 ± 400 nM
effect on tubulin polymerisation compared to control (Porcine brain tubulin): inhibited tubulin polymerisation in a dose-dependent manner
